{
  "source": "ChEMBL document CHEMBL1201862",
  "about": "“PubChem BioAssay data set” (2004)",
  "assay_in_all_cases": "growth of human tumour cells (NCI), 48 h",
  "key": {"A549": {"system": "A549"}, "COLO 205": {"system": "COLO 205"}, "HCT-116": {"system": "HCT-116"}, "IGROV-1": {"system": "IGROV-1"}, "KM12": {"system": "KM12"}, "M14": {"system": "M14"}, "MCF7": {"system": "MCF7"}, "Malme-3M": {"system": "Malme-3M"}, "OVCAR-3": {"system": "OVCAR-3"}, "OVCAR-4": {"system": "OVCAR-4"}, "SF-295": {"system": "SF-295"}, "SF-539": {"system": "SF-539"}, "SK-MEL-28": {"system": "SK-MEL-28"}, "SN12C": {"system": "SN12C"}, "SNB-75": {"system": "SNB-75"}, "U-251": {"system": "U-251"}, "UACC-62": {"system": "UACC-62"}, "UO-31": {"system": "UO-31"}, "NCI-H226": {"system": "NCI-H226"}, "RPMI-8226": {"system": "RPMI-8226"}},
  "note": "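Five concentrations, 48 hours, 96-well plates. At the GI50, growth is halved.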 Activity calls are given as the source filed them. Rule as the data show it: active = GI50 up to about 1.1 µM and inactive = higher.",
  "data": [
    {"smiles": "COc1cc(/C=C2/C[C@H]3[C@@H]4CC=C5C[C@@H](OC(C)=O)CC[C@]5(C)[C@H]4CC[C@]3(C)NC2=O)cc(OC)c1OC", "values": [
      {"measurement": "GI50", "setting": "A549", "result": "18 µM (inactive)"},
      {"measurement": "GI50", "setting": "COLO 205", "result": "> 100 µM (inactive)"},
      {"measurement": "GI50", "setting": "HCT-116", "result": "26.4 µM (inactive)"},
      {"measurement": "GI50", "setting": "IGROV-1", "result": "30 µM (inactive)"},
      {"measurement": "GI50", "setting": "KM12", "result": "47.4 µM (inactive)"},
      {"measurement": "GI50", "setting": "M14", "result": "36.5 µM (inactive)"},
      {"measurement": "GI50", "setting": "MCF7", "result": "25.4 µM (inactive)"},
      {"measurement": "GI50", "setting": "Malme-3M", "result": "25.6 µM (inactive)"},
      {"measurement": "GI50", "setting": "OVCAR-3", "result": "31.3 µM (inactive)"},
      {"measurement": "GI50", "setting": "OVCAR-4", "result": "17.4 µM (inactive)"},
      {"measurement": "GI50", "setting": "SF-295", "result": "26.8 µM (inactive)"},
      {"measurement": "GI50", "setting": "SF-539", "result": "13.1 µM (inactive)"},
      {"measurement": "GI50", "setting": "SK-MEL-28", "result": "26.2 µM (inactive)"},
      {"measurement": "GI50", "setting": "SN12C", "result": "29.6 µM (inactive)"},
      {"measurement": "GI50", "setting": "SNB-75", "result": "22.5 µM (inactive)"},
      {"measurement": "GI50", "setting": "U-251", "result": "19.5 µM (inactive)"},
      {"measurement": "GI50", "setting": "UACC-62", "result": "19.8 µM (inactive)"},
      {"measurement": "GI50", "setting": "UO-31", "result": "18.1 µM (inactive)"}
    ]},
    {"smiles": "O=[N+]([O-])c1ccc(/C(=N/c2ccccc2)SS/C(=N\\c2ccccc2)c2ccc([N+](=O)[O-])o2)o1", "values": [
      {"measurement": "GI50", "setting": "A549", "result": "1.91 µM (inactive)"},
      {"measurement": "GI50", "setting": "COLO 205", "result": "1.51 µM (inactive)"},
      {"measurement": "GI50", "setting": "HCT-116", "result": "1.5 µM (inactive)"},
      {"measurement": "GI50", "setting": "IGROV-1", "result": "1.6 µM (inactive)"},
      {"measurement": "GI50", "setting": "KM12", "result": "1.68 µM (inactive)"},
      {"measurement": "GI50", "setting": "M14", "result": "1.98 µM (inactive)"},
      {"measurement": "GI50", "setting": "MCF7", "result": "0.444 µM (active)"},
      {"measurement": "GI50", "setting": "Malme-3M", "result": "2.31 µM (inactive)"},
      {"measurement": "GI50", "setting": "NCI-H226", "result": "18.7 µM (inactive)"},
      {"measurement": "GI50", "setting": "OVCAR-3", "result": "1.53 µM (inactive)"},
      {"measurement": "GI50", "setting": "OVCAR-4", "result": "1.47 µM (inactive)"},
      {"measurement": "GI50", "setting": "SF-295", "result": "2.76 µM (inactive)"},
      {"measurement": "GI50", "setting": "SF-539", "result": "0.83 µM (active)"},
      {"measurement": "GI50", "setting": "SK-MEL-28", "result": "2.4 µM (inactive)"},
      {"measurement": "GI50", "setting": "SN12C", "result": "1.94 µM (inactive)"},
      {"measurement": "GI50", "setting": "SNB-75", "result": "1.66 µM (inactive)"},
      {"measurement": "GI50", "setting": "U-251", "result": "0.955 µM (active)"},
      {"measurement": "GI50", "setting": "UACC-62", "result": "1.61 µM (inactive)"},
      {"measurement": "GI50", "setting": "UO-31", "result": "1.47 µM (inactive)"}
    ]},
    {"smiles": "CCN(CC)C(=O)CCn1cc(F)c(=O)[nH]c1=O", "values": [
      {"measurement": "GI50", "setting": "A549", "result": "> 100 µM (inactive)"},
      {"measurement": "GI50", "setting": "COLO 205", "result": "> 100 µM (inactive)"},
      {"measurement": "GI50", "setting": "HCT-116", "result": "> 100 µM (inactive)"},
      {"measurement": "GI50", "setting": "IGROV-1", "result": "> 100 µM (inactive)"},
      {"measurement": "GI50", "setting": "KM12", "result": "> 100 µM (inactive)"},
      {"measurement": "GI50", "setting": "M14", "result": "> 100 µM (inactive)"},
      {"measurement": "GI50", "setting": "Malme-3M", "result": "> 100 µM (inactive)"},
      {"measurement": "GI50", "setting": "NCI-H226", "result": "> 100 µM (inactive)"},
      {"measurement": "GI50", "setting": "OVCAR-3", "result": "> 100 µM (inactive)"},
      {"measurement": "GI50", "setting": "OVCAR-4", "result": "> 100 µM (inactive)"},
      {"measurement": "GI50", "setting": "RPMI-8226", "result": "> 100 µM (inactive)"},
      {"measurement": "GI50", "setting": "SF-295", "result": "> 100 µM (inactive)"},
      {"measurement": "GI50", "setting": "SF-539", "result": "> 100 µM (inactive)"},
      {"measurement": "GI50", "setting": "SK-MEL-28", "result": "> 100 µM (inactive)"},
      {"measurement": "GI50", "setting": "SN12C", "result": "> 100 µM (inactive)"},
      {"measurement": "GI50", "setting": "SNB-75", "result": "4.68 µM (inactive)"},
      {"measurement": "GI50", "setting": "U-251", "result": "> 100 µM (inactive)"},
      {"measurement": "GI50", "setting": "UACC-62", "result": "> 100 µM (inactive)"},
      {"measurement": "GI50", "setting": "UO-31", "result": "> 100 µM (inactive)"}
    ]}
  ]
}
